Assays:
Rat DNA polymerase β = biological target: T1, Rat DNA polymerase β (Rattus norvegicus, UniProt P06766); experiment: DNA polymerase activity assay, rat pol β; format: biochemical; conditions: X-family pol; read-out: IC50 Value of MK-2, Rat DNA polymerase β
T1 construct: made in house
Protocol: (§1) Pols from mammals, a fish (cherry salmon), an insect (fruit fly) and a plant (cauliflower) were purified, and prokaryotic pols and other DNA metabolic enzymes, such as T7 RNA polymerase, T4 polynucleotide kinase and bovine deoxyribonuclease I, were purchased as described in our previous report. The activities of all pols and other DNA metabolic enzymes were measured as described in previous reports.
(§2) The components of the pol assay were poly(dA)/oligo(dT)18 and dTTP as the DNA template-primer and 2′-deoxyribonucleoside 5′-triphosphate (dNTP) substrate, respectively. VK2, VK3, and their synthesized derivatives (i.e., MK-3, MK-2 and MK-1) were dissolved in dimethyl sulfoxide (DMSO) at various concentrations and sonicated for 30 s. The sonicated samples (4 μL) were mixed with 16 μL of each pol enzyme (final amount, 0.05 units) in 50 mM Tris-HCl (pH 7.5) containing 1 mM dithiothreitol, 50% glycerol and 0.1 mM EDTA, and kept at 0 °C for 10 min. […] Activity without the inhibitor was considered to be 100%, and the activity remaining at each concentration of inhibitor was determined relative to this value. […]

[1] = biological target: T2, Fruit fly DNA polymerase α (Drosophila melanogaster, UniProt P26019); experiment: DNA polymerase activity assay, fruit fly pol α; format: biochemical; conditions: insect pol; read-out: IC50 Value of MK-2, Fruit fly DNA polymerase α
T2 construct: made in house
T2 sequence (P26019 whole entry): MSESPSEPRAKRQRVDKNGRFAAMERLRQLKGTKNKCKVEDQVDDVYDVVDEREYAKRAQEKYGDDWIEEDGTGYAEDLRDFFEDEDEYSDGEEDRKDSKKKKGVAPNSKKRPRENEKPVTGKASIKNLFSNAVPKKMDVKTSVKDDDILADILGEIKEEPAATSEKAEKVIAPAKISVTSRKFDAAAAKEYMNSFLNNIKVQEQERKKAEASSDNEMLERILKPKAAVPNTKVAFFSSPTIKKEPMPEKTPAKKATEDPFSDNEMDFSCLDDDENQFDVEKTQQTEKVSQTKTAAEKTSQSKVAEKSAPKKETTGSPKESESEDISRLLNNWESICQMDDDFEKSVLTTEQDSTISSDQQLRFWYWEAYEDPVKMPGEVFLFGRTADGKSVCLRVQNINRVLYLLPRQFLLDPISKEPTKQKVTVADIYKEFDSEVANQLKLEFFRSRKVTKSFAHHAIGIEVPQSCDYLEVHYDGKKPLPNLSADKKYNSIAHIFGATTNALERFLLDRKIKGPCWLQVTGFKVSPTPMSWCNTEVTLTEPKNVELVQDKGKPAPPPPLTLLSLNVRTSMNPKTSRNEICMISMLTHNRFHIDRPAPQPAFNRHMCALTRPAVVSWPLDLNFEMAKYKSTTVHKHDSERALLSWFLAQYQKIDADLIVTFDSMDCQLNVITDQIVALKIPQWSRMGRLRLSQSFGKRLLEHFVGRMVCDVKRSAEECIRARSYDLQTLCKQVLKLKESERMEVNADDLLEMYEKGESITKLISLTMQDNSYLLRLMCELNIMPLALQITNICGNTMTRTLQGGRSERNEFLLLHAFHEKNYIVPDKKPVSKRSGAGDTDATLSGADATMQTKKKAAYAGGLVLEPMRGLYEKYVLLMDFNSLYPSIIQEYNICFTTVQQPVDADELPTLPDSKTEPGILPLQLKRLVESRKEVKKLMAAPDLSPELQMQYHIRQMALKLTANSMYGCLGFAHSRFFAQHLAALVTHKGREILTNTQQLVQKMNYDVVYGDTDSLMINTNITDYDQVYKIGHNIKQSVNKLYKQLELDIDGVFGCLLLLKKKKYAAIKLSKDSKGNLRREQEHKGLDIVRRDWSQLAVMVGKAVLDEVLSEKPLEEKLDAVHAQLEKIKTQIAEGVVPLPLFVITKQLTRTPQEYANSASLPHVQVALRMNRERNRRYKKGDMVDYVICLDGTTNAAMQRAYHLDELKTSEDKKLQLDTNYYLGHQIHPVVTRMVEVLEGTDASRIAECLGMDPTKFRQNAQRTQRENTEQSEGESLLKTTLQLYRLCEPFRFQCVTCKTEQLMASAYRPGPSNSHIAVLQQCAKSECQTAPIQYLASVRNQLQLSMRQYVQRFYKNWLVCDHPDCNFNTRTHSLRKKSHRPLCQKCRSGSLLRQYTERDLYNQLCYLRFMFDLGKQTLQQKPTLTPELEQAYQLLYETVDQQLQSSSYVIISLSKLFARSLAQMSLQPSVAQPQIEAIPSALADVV
Protocol: as §1, §2

[2] = biological target: T3, Fruit fly DNA polymerase δ (Drosophila melanogaster, UniProt P54358); experiment: DNA polymerase activity assay, fruit fly pol δ; format: biochemical; conditions: insect pol; read-out: IC50 Value of MK-2, Fruit fly DNA polymerase δ
T3 construct: made in house
T3 sequence (P54358 whole entry): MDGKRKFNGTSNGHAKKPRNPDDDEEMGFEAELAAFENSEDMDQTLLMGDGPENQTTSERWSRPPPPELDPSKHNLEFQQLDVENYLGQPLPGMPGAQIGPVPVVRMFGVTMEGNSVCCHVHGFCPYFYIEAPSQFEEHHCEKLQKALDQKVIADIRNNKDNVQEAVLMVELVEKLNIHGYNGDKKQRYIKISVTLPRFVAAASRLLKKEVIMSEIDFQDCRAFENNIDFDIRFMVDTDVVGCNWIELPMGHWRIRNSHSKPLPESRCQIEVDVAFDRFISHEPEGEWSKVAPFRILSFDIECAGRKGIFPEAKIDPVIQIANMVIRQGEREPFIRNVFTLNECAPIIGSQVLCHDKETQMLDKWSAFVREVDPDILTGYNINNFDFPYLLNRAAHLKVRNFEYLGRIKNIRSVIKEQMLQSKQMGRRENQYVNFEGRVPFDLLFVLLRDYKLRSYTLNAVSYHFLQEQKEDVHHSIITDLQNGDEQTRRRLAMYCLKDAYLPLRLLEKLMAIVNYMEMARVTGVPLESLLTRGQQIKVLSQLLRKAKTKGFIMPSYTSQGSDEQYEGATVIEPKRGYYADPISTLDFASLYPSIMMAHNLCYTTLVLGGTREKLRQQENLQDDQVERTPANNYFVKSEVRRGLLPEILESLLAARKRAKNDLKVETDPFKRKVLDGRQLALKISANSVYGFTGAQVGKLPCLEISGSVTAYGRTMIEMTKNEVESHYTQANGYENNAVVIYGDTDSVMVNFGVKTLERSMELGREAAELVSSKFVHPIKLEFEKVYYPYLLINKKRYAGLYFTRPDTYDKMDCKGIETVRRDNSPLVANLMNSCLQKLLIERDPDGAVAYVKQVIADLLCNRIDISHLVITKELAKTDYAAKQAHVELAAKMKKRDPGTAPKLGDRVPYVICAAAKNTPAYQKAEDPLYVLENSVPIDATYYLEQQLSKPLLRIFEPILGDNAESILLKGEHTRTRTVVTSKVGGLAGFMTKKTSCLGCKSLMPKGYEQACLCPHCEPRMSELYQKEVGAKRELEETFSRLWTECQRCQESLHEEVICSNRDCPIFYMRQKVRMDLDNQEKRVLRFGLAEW
Protocol: as §1, §2

E. coli DNA polymerase I = biological target: T4, E. coli DNA polymerase I (Escherichia coli, UniProt P00582); experiment: DNA polymerase activity assay, E. coli pol I; format: biochemical; conditions: prokaryotic pol; read-out: IC50 Value of MK-2, E. coli DNA polymerase I
T4 construct: purchased
T4 sequence (P00582 324-928): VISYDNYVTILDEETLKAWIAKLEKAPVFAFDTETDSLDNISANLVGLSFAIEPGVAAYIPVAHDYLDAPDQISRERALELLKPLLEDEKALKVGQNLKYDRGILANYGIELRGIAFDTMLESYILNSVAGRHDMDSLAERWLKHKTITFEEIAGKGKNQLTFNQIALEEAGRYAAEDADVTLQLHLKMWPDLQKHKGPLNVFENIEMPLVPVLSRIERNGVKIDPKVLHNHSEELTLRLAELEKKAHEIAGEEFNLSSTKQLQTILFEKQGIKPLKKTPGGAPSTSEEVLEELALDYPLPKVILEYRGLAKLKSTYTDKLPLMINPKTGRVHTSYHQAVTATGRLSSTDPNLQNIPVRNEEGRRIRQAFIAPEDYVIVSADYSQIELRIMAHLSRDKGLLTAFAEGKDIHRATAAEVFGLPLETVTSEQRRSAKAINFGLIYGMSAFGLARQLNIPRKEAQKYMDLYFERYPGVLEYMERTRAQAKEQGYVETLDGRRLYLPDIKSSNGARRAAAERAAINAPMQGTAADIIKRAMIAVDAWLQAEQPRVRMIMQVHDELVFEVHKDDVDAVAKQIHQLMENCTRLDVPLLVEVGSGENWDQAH
Protocol: as §1, §2

Taq DNA polymerase = biological target: T5, Taq DNA polymerase (Thermus aquaticus, UniProt P19821); experiment: DNA polymerase activity assay, Taq pol; format: biochemical; conditions: prokaryotic pol; incubated at 74 °C; read-out: IC50 Value of MK-2, Taq DNA polymerase
T5 construct: purchased
T5 sequence (P19821 whole entry): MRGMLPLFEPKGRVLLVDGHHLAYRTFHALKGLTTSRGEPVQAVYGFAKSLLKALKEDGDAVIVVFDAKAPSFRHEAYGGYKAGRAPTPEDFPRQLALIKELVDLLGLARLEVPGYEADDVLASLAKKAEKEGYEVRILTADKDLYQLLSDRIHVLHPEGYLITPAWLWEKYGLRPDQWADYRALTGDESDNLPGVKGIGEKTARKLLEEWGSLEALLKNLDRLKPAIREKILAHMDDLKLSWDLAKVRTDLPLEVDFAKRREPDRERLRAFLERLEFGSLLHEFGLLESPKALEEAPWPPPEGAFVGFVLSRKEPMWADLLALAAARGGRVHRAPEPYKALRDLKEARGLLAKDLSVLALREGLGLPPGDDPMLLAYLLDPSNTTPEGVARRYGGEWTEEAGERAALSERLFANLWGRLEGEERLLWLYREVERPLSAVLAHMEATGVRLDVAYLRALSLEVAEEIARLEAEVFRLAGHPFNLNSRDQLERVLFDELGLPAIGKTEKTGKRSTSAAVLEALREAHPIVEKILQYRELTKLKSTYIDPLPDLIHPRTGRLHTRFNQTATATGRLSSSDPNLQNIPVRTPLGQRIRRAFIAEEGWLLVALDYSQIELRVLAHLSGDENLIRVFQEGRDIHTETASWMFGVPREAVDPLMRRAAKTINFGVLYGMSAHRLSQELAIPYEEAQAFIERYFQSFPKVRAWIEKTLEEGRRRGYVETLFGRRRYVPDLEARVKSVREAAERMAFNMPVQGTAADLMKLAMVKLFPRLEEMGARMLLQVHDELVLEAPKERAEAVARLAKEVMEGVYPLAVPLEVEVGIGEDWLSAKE
Protocol: as §1, §2

[3] = biological target: Calf primase of DNA polymerase α (Bos taurus, UniProt A0A3Q1MF00); experiment: DNA metabolic enzyme assay, calf primase of pol α; format: biochemical; conditions: other DNA metabolic enzyme; read-out: IC50 Value of MK-2, Calf primase of DNA polymerase α
Protocol: as §1

[4] = biological target: B-family pols (mammalian); experiment: DNA polymerase activity assay, mammalian B-family pols; format: biochemical, mammals; conditions: range over mammalian B-family pols α, δ, ɛ; read-out: 50% inhibition of the B family of pols
Protocol: as §1, §2

[5] = biological target: X-family pols (mammalian); experiment: DNA polymerase activity assay, mammalian X-family pols; format: biochemical, mammals; conditions: range over mammalian X-family pols β, λ, TdT; read-out: 50% inhibition of the X family of pols
Protocol: as §1, §2

[6] = biological target: Y-family pols (mammalian); experiment: DNA polymerase activity assay, mammalian Y-family pols; format: biochemical, mammals; conditions: range over mammalian Y-family pols η, ι, κ; read-out: 50% inhibition of the Y family of pols
Protocol: as §1, §2

[7] = test system: LPS-induced TNF-α production in serum; experiment: In vivo LPS-induced inflammatory experiment, serum TNF-α; parameters: species or system mouse; conditions: female C57BL/6 mice; 100 mg/kg BW intraperitoneal, 30 min before LPS 250 μg/kg BW i.p.; serum 1 h after LPS
Protocol: All animal studies were performed according to the guidelines outlined in the “Care and Use of Laboratory Animals” of Kobe University. The animals were anesthetized with pentobarbital before undergoing cervical dislocation. Female 8-week-old C57BL/6 mice that had been bred in-house with free access to food and water were used for all experiments. All of the mice were maintained under a 12-h light/dark cycle and housed at a room temperature of 25 °C.
Mice were intraperitoneally injected with 200 μL of MK-2 dissolved in corn oil at 100 mg/kg body weight (BW), or 200 μL of corn oil as a vehicle control. After 30 min, the mice were intraperitoneally injected with 200 μL of 250 μg/kg BW LPS dissolved in PBS or 200 μL of PBS as a vehicle control. After 1 h, the mice were killed, and blood samples were collected. The blood serum was separated by centrifugation at 15,000 × g for 10 min at 4 °C, and the TNF-α level in the serum was measured by ELISA.

In the case of `CC(C)=CCC/C(C)=C/CC1=C(C)C(=O)c2ccccc2C1=O` [MK-2], the IC50 (Rat DNA polymerase β) is reported as 31 ± 1.8 µM, the IC50 [1] is reported as 34 ± 2 µM and the IC50 [2] is reported as 36.9 ± 2.2 µM. For the same molecule, the IC50 (E. coli DNA polymerase I) was greater than 200 µM, the IC50 (Taq DNA polymerase) was greater than 200 µM and the IC50 [3] was greater than 200 µM. It also gave an IC50 [4] of 27.6 to 29.1 µM, an IC50 [5] of 24.6 to 31 µM and an IC50 [6] of 35.3 to 39 µM. The “Decrease of LPS-induced serum TNF-α production” value [7] was 83.2%.

Source: PMC3083694, “Effects of Intermediates between Vitamins K2 and K3 on Mammalian DNA Polymerase Inhibition and Anti-Inflammatory Activity” (International Journal of Molecular Sciences, 2011)
